Assay results reported in BindingDB's records for doi:10.1016/j.bioorg.2006.11.002 (The Josip Juraj Strossmayer University, 2007).

Experiments:
[1] = target: T1, Dipeptidyl peptidase 3 (Homo sapiens, UniProt Q9NY33); assay: Enzyme Inhibition Assay; settings: pH 7.4; 25 °C
T1 sequence (Q9NY33 whole entry): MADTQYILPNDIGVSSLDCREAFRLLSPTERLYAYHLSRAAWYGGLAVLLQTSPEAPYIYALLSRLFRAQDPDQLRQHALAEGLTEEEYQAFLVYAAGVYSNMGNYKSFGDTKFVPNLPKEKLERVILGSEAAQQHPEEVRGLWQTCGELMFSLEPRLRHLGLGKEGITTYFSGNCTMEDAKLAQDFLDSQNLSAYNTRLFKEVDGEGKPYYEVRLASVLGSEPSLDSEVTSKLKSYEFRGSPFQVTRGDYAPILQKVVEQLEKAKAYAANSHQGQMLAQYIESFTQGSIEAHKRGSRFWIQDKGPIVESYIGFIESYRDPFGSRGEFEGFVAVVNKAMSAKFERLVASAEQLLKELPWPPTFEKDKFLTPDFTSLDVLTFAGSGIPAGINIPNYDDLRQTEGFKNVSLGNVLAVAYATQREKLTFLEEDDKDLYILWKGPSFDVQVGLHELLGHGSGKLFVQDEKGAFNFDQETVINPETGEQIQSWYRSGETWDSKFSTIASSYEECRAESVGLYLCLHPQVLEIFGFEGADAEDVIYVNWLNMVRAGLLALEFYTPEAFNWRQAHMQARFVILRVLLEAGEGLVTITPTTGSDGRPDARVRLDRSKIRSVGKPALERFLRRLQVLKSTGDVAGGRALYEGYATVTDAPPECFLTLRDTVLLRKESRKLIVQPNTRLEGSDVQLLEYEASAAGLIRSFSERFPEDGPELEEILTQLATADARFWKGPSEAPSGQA
From the text: The IC50 value is defined as the concentration of an inhibitor with caused 50% reduction of the enzyme activity under specific condition. The principle of these assay with synthetic 2-naphthylamide substrates is based on the absorbance at 530nm of a chromophoric complex formed by the reaction product 2-naphthylamine with Fast Blue B salt.

[2] = target: T1, Dipeptidyl peptidase 3; assay: Enzyme Inhibition Assay; settings: pH 7.4; 25 °C; remark: listed apart in the source

SMILES | IC50 [1] | Kd [2]
c1ccc(C2C(c3nc4ccc(C5=NCCN5)cc4[nH]3)C(c3ccccc3)C2c2nc3ccc(C4=NCCN4)cc3[nH]2)cc1 (stereo not drawn) [2,4-Disubstituted-1,3-di-(5-amidino-2-benzoimidazolyl)-cyclobutane hydrochoride, 1'] | 2.8 µM | 0.2 µM
CC(C)N=C(N)c1ccc2nc(C3C(c4ccccc4)C(c4nc5ccc(C(=N)NC(C)C)cc5[nH]4)C3c3ccccc3)[nH]c2c1 (stereo not drawn) [2,4-Disubstituted-1,3-di-(5-amidino-2-benzoimidazolyl)-cyclobutane hydrochoride, 3'] | > 10 µM | –
Clc1ccccc1C1C(c2nc3ccc(C4=NCCN4)cc3[nH]2)C(c2ccccc2Cl)C1c1nc2ccc(C3=NCCN3)cc2[nH]1 (stereo not drawn) [2,4-Disubstituted-1,3-di-(5-amidino-2-benzoimidazolyl)-cyclobutane hydrochoride, 4'] | > 1.7 µM | –
CC(C)N=C(N)c1ccc2nc(C3C(c4ccccc4Cl)C(c4nc5ccc(C(=N)NC(C)C)cc5[nH]4)C3c3ccccc3Cl)[nH]c2c1 (stereo not drawn) [2,4-Disubstituted-1,3-di-(5-amidino-2-benzoimidazolyl)-cyclobutane hydrochoride, 6'] | 6 µM | –
c1coc(C2C(c3nc4ccc(C5=NCCN5)cc4[nH]3)C(c3ccco3)C2c2nc3ccc(C4=NCCN4)cc3[nH]2)c1 (stereo not drawn) [2,4-Disubstituted-1,3-di-(5-amidino-2-benzoimidazolyl)-cyclobutane hydrochoride, 7'] | 8 µM | –
c1csc(C2C(c3nc4ccc(C5=NCCN5)cc4[nH]3)C(c3cccs3)C2c2nc3ccc(C4=NCCN4)cc3[nH]2)c1 (stereo not drawn) [2,4-Disubstituted-1,3-di-(5-amidino-2-benzoimidazolyl)-cyclobutane hydrochoride, 8'] | 10 µM | –

Second part, the compound after the results:

IC50 [1] | Kd [2] | SMILES
5.6 µM | – | N=C(N)c1ccc2nc(C3C(c4ccccc4)C(c4nc5ccc(C(=N)N)cc5[nH]4)C3c3ccccc3)[nH]c2c1 (stereo not drawn) [2,4-Disubstituted-1,3-di-(5-amidino-2-benzoimidazolyl)-cyclobutane hydrochoride, 2']
7 µM | – | N=C(N)c1ccc2nc(C3C(c4ccccc4Cl)C(c4nc5ccc(C(=N)N)cc5[nH]4)C3c3ccccc3Cl)[nH]c2c1 (stereo not drawn) [2,4-Disubstituted-1,3-di-(5-amidino-2-benzoimidazolyl)-cyclobutane hydrochoride, 5']
53 µM | – | N=C(N)c1ccc2[nH]c(-c3c[nH]cn3)nc2c1 [Benzimidazole derivative, 1]
18 µM | – | c1ncc(-c2nc3cc(C4=NCCN4)ccc3[nH]2)[nH]1 [Benzimidazole derivative, 2]
10 µM | – | C(=Cc1nc2ccc(C3=NCCN3)cc2[nH]1)c1ccccc1 [Benzimidazole derivative, 3]
> 100 µM | – | C(=C\c1nc2ccccc2[nH]1)/c1ccccc1 [Benzimidazole derivative, 4]
